In the assay the target is voltage-gated Na channels. It is filed as cell-based, squid (Loligo opalescens).

As a reminder, the Ki is the dissociation constant of the complex between target and ligand, obtained from inhibition or displacement. Turning to “MKLTCVLVVLLLLLPYGDLITNNYIRGAARKVTPWRRNLKTRDVCDSLVGGHCIHNGCWCDQEAPHGNCCDTDGCTAAWWCPGTKWD [calTx1.1A]”, the Ki is roughly 15 nM, the “Na-channel blocking activity (block)” value was 55%, the “reversibility of INa reduction/block” value is recorded as “reversibly blocked INa” and the “steady-state voltage-dependence of fast inactivation of residual INa” value was “not significantly affected”. The “time course of residual prepulse-sensitive INa” value was “not significantly different than normal” and the “voltage dependence of block: potency decreasing e-fold in” value was 300-400 mV.

Source of the values: patent US7341998B2 (The Board of Trustees of the Leland Stanford Junior …, priority 2005, dated 2008).
